US7547513B2, “Mutants of deoxycytidine kinase having extended enzymatic activity” (priority 2001, dated 2009)

Experiments:
Format in all cases: cell-based
[1] = system: Escherichia coli β7334 Δdeo tdk cdd::Tn10 pSUTrc (dck allele: none); settings: strain β7334, dck allele none; 18 h 37° C., MS medium + IPTG
[2] = system: Escherichia coli β7338 Δdeo tdk cdd::Tn10 pSUDCK4 (dck:D133E-R104Q); settings: strain β7338, dck allele D133E R104Q; 18 h 37° C., MS medium + IPTG
[3] = system: Escherichia coli strains of genotype Δdeo tdk cdd expressing the different dckH alleles; test: MIC toxicity in strains Δdeo tdk cdd expressing any dckH allele; settings: whatever the DCK allele
Procedure: The culture was then diluted 100 times in the same medium supplemented with IPTG and distributed on 96-well microplates in a final volume of 100 μl in a series of dilutions from to 2 to 2 nucleotide analogues. Each analogue was tested twice. After incubation for 18 hours at 37° C. with stirring, the MIC was determined as corresponding to the lowest analogue concentration for which no turbidity was detectable.
The toxicity of nucleoside analogues, deviating either by the sugar or by the base, was evaluated in strains of genotype Δdeo tdk cdd expressing on a plasmid the different dckH alleles, wild-type allele, D133E, R104Q and double mutant.

[4] = system: Escherichia coli β7348 Δdeo tdk cdd::Tn10 (dckH D133E R104Q, amkG T39A); test: microbe, parasite or virus in culture; settings: strain β7348, dckH D133E R104Q, amkG T39A
Method in brief: (§1)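 Growth inhibition by nucleoside analogues is read as turbidity after 18 hours at 37° C. with stirring; the MIC, in microM, is the lowest concentration where none is detectable. Cells are diluted 100-fold in IPTG-supplemented medium, and each analogue is run twice.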

[5] = system: Escherichia coli β7341 Δdeo tdk cdd::Tn10 (dckH D133E, amkG wt); test: microbe, parasite or virus in culture; settings: strain β7341, dckH D133E, amkG wt
Method in brief: as §1

[6] = system: Escherichia coli β7347 Δdeo tdk cdd::Tn10 (dckH R104Q, amkG T39A); test: microbe, parasite or virus in culture; settings: strain β7347, dckH R104Q, amkG T39A
Method in brief: as §1

[7] = system: Escherichia coli β7342 Δdeo tdk cdd::Tn10 (dckH R104Q, amkG wt); test: microbe, parasite or virus in culture; settings: strain β7342, dckH R104Q, amkG wt
Method in brief: as §1

[8] = system: Escherichia coli β7343 Δdeo tdk cdd::Tn10 (dckH D133E R104Q, amkG wt); test: microbe, parasite or virus in culture; settings: strain β7343, dckH D133E R104Q, amkG wt
Method in brief: as §1

[9] = system: Escherichia coli β7344 Δdeo tdk cdd::Tn10 (dckH none, amkG T39A); test: microbe, parasite or virus in culture; settings: strain β7344, dckH none, amkG T39A
Method in brief: as §1

[10] = system: Escherichia coli β7340 Δdeo tdk cdd::Tn10 (dckH wt, amkG wt); test: microbe, parasite or virus in culture; settings: strain β7340, dckH wt, amkG wt
Method in brief: as §1

[11] = system: Escherichia coli β7339 Δdeo tdk cdd::Tn10 (dckH none, amkG wt); test: microbe, parasite or virus in culture; settings: strain β7339, dckH none, amkG wt
Method in brief: as §1

[12] = system: Escherichia coli β7345 Δdeo tdk cdd::Tn10 (dckH wt, amkG T39A); test: microbe, parasite or virus in culture; settings: strain β7345, dckH wt, amkG T39A
Method in brief: as §1

[13] = system: Escherichia coli β7346 Δdeo tdk cdd::Tn10 (dckH D133E, amkG T39A); test: microbe, parasite or virus in culture; settings: strain β7346, dckH D133E, amkG T39A
Method in brief: as §1

[14] = system: Escherichia coli β7335 Δdeo tdk cdd::Tn10 pSUDCK1 (dck wt); settings: DCK wt
[15] = system: Escherichia coli β7337 Δdeo tdk cdd::Tn10 pSUDCK3 (dck:R104Q); settings: strain β7337, dck allele R104Q; 18 h 37° C., MS medium + IPTG
[16] = system: Escherichia coli β7336 Δdeo tdk cdd::Tn10 pSUDCK2 (dck:D133E); settings: strain β7336, dck allele D133E; 18 h 37° C., MS medium + IPTG

SMILES: Nc1ncn([C@H]2C[C@H](O)[C@@H](CO)O2)c(=O)n1 [5-aza-dC, 5-aza-2′-deoxycitidine]
- minimum inhibitory concentration (MIC) [1]: > (no toxicity could be detected at the highest analogue concentration, 1.28 mM)
- minimum inhibitory concentration (MIC) [2]: 1.25 µM
- MIC [3]: < 1.25 µM
- minimum inhibitory concentration (MIC) [4]: ≦1.25 microM
- minimum inhibitory concentration (MIC) [5]: ≦1.25 microM
- minimum inhibitory concentration (MIC) [6]: ≦1.25 microM
- minimum inhibitory concentration (MIC) [7]: ≦1.25 microM
- minimum inhibitory concentration (MIC) [8]: ≦1.25 microM
- minimum inhibitory concentration (MIC) [9]: > (no toxicity could be detected at the highest analogue concentration, 1280 microM)
- minimum inhibitory concentration (MIC) [10]: ≦1.25 microM
- minimum inhibitory concentration (MIC) [11]: > (no toxicity could be detected at the highest analogue concentration, 1280 microM)
- minimum inhibitory concentration (MIC) [12]: ≦1.25 microM
- minimum inhibitory concentration (MIC) [13]: ≦1.25 microM

SMILES: Cc1cn([C@H]2C[C@H](N=[N+]=[N-])[C@@H](CO)O2)c(=O)[nH]c1=O [AZT, 3′-azido-3′dexoythymidine]
- substrate of DCK wt (from toxicity tests of Table 3) [14]: not a substrate
- minimum inhibitory concentration (MIC) [15]: 640 µM
- minimum inhibitory concentration (MIC) [16]: 640 µM
- minimum inhibitory concentration (MIC) [1]: > (no toxicity could be detected at the highest analogue concentration, 1.28 mM)
- minimum inhibitory concentration (MIC) [2]: 1280 µM
- minimum inhibitory concentration (MIC) [4]: > (no toxicity could be detected at the highest analogue concentration, 1280 microM)
- minimum inhibitory concentration (MIC) [5]: > (no toxicity could be detected at the highest analogue concentration, 1280 microM)
- minimum inhibitory concentration (MIC) [6]: > (no toxicity could be detected at the highest analogue concentration, 1280 microM)
- minimum inhibitory concentration (MIC) [7]: > (no toxicity could be detected at the highest analogue concentration, 1280 microM)
- minimum inhibitory concentration (MIC) [8]: > (no toxicity could be detected at the highest analogue concentration, 1280 microM)
- minimum inhibitory concentration (MIC) [9]: > (no toxicity could be detected at the highest analogue concentration, 1280 microM)
- minimum inhibitory concentration (MIC) [10]: > (no toxicity could be detected at the highest analogue concentration, 1280 microM)
- minimum inhibitory concentration (MIC) [11]: > (no toxicity could be detected at the highest analogue concentration, 1280 microM)
- minimum inhibitory concentration (MIC) [12]: > (no toxicity could be detected at the highest analogue concentration, 1280 microM)
